From BindingDB's records for doi:10.1111/cbdd.12675 (Quaid-I-Azam University, 2016)

Target: Urease (Canavalia ensiformis, UniProt P07374)
Experiment: Urease Inhibition Assay
Settings: pH 8.2
Protocol: The urease inhibitory activity of synthesized sulfonamides (3a-j) was determined by measuring the amount of ammonia produced by the indophenols method described byWeatherburn (27,28). The reaction mixtures, comprising 20 µL of enzyme (Jack bean urease, 5 U/mL) and 20 µL of test compounds in 50 µL buffer (100 mM urea, 0.01 MK2HPO4, 1 mM EDTA and 0.01 M […], pH 8.2), were incubated for 10 min at 37 °C in 96-well plate. Briefly, 40 µL each of phenol reagents (1%, w/v phenol and0.005%, w/v sodium nitroprusside) and 70 µL of alkali reagent (0.5%, w/v NaOH and 0.1% active chloride NaOCl) were added to each well. […] All reactions were performed in triplicate.

Sequence of Urease (P07374 whole entry): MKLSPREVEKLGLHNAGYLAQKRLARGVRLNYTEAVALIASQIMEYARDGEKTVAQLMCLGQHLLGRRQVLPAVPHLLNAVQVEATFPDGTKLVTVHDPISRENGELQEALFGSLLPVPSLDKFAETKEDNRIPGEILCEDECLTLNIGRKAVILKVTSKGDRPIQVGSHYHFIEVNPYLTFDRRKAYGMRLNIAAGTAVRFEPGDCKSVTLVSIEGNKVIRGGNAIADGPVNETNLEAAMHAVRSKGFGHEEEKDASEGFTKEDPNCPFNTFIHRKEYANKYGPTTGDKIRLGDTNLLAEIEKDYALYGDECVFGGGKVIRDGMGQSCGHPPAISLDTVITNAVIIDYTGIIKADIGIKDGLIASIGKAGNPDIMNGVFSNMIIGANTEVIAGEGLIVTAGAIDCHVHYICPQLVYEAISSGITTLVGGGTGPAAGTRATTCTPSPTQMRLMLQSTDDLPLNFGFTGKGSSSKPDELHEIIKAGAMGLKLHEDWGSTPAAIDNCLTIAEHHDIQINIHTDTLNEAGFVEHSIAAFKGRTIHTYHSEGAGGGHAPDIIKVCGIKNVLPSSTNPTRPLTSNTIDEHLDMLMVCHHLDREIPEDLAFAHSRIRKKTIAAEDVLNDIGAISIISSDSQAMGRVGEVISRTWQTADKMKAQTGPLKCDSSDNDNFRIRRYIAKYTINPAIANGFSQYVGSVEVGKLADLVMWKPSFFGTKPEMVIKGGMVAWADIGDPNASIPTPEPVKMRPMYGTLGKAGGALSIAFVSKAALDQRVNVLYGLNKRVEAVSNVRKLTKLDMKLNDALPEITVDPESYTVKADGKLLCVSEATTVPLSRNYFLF

SMILES: Cc1cs/c(=N\C(=O)c2ccccc2)n1-c1ccc(S(N)(=O)=O)cc1 [(Z)-N-(3-(4-aminosulfonylphenyl)-4-methylthiazol-2(3H)-ylidene) benzamide (3a)]
- IC50: 96 nM

SMILES: Cc1cs/c(=N\C(=O)c2ccco2)n1-c1ccc(S(N)(=O)=O)cc1 [(Z)-N-(3-(4-aminosulfonylphenyl)-4-methylthiazol-2(3H)-ylidene) furan-2-carboxamide (3j)]
- IC50: 83 nM

SMILES: Cc1cs/c(=N\C(=O)c2ccc([N+](=O)[O-])cc2Cl)n1-c1ccc(S(N)(=O)=O)cc1 [(Z)-N-(3-(4-aminosulfonylphenyl)-4-methylthiazol-2(3H)-ylidene)-2-chloro-4-nitrobenzamide (3i)]
- IC50: 58 nM

SMILES: Cc1ccccc1C(=O)/N=c1\scc(C)n1-c1ccc(S(N)(=O)=O)cc1 [(Z)-N-(3-(4-aminosulfonylphenyl)-4-methylthiazol-2(3H)-ylidene)-2-methylbenzamide (3b)]
- IC50: 87 nM

SMILES: Cc1cs/c(=N\C(=O)c2ccccc2[N+](=O)[O-])n1-c1ccc(S(N)(=O)=O)cc1 [(Z)-N-(3-(4-aminosulfonylphenyl)-4-methylthiazol-2(3H)-ylidene)-2-nitrobenzamide (3f)]
- IC50: 350 nM

SMILES: Cc1cs/c(=N\C(=O)c2cccc(F)c2)n1-c1ccc(S(N)(=O)=O)cc1 [(Z)-N-(3-(4-aminosulfonylphenyl)-4-methylthiazol-2(3H)-ylidene)-3-fluorobenzamide (3h)]
- IC50: 64 nM

SMILES: COc1cccc(C(=O)/N=c2\scc(C)n2-c2ccc(S(N)(=O)=O)cc2)c1 [(Z)-N-(3-(4-aminosulfonylphenyl)-4-methylthiazol-2(3H)-ylidene)-3-methoxybenzamide (3g)]
- IC50: 81 nM

SMILES: Cc1cccc(C(=O)/N=c2\scc(C)n2-c2ccc(S(N)(=O)=O)cc2)c1 [(Z)-N-(3-(4-aminosulfonylphenyl)-4-methylthiazol-2(3H)-ylidene)-3-methylbenzamide (3c)]
- IC50: 87 nM

SMILES: Cc1ccc(C(=O)/N=c2\scc(C)n2-c2ccc(S(N)(=O)=O)cc2)cc1 [(Z)-N-(3-(4-aminosulfonylphenyl)-4-methylthiazol-2(3H)-ylidene)-4-methylbenzamide (3d)]
- IC50: 72 nM

SMILES: Cc1cs/c(=N\C(=O)c2ccc([N+](=O)[O-])cc2)n1-c1ccc(S(N)(=O)=O)cc1 [(Z)-N-(3-(4-aminosulfonylphenyl)-4-methylthiazol-2(3H)-ylidene)-4-nitrobenzamide (3e)]
- IC50: 83 nM
